{"source": "ChEMBL document CHEMBL4725258", "about": "“2β-3,4-Unsaturated sialic acid derivatives: Synthesis optimization, and biological evaluation as Newcastle disease virus hemagglutinin-neuraminidase inhibitors” (Bioorg Med Chem, 2020)", "key": {"[1]": {"experiment": "Inhibition of Newcastle disease virus neuraminidase using 4-MUNeu5Ac as substrate incubated for 15 mins by spectrofluorometric analysis", "set-up": "species or system avian paramyxovirus 1"}, "Sialidase-3": {"target": "T1, Sialidase-3 (Homo sapiens, UniProt Q9UQ49)", "T1 sequence (Q9UQ49 whole entry)": "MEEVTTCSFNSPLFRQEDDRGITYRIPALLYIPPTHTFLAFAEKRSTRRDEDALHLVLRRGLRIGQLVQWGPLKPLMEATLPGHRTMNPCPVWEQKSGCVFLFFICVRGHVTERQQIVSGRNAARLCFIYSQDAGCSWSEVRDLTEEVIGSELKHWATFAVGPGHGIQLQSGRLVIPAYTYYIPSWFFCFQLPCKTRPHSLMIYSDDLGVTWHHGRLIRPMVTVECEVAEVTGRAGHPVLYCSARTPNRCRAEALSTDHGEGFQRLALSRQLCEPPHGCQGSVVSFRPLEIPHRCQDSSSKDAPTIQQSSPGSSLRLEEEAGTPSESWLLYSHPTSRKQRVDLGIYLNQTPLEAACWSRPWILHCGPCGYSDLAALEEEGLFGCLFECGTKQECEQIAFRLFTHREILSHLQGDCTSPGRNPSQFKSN", "experiment": "Inhibition of human NEU3 expressed in HEK293A cells as substrate incubated for 1 hr by spectrofluorometric analysis", "set-up": "species or system HEK293"}}}
{"smiles": "CCCCCCCCS[C@@]1(C(=O)O)C=C[C@@H](NC(C)=O)[C@H]([C@H](O)[C@H](O)CO)O1", "values": [{"measurement": "IC50", "setting": "[1]", "value": 406, "unit": "µM"}, {"measurement": "IC50", "setting": "Sialidase-3", "value": "> 1000", "unit": "µM"}]}
{"smiles": "CO[C@]1(C(=O)O)C=C[C@@H](NC(C)=O)[C@H]([C@H](O)[C@H](O)CO)O1", "values": [{"measurement": "IC50", "setting": "[1]", "value": "> 1000", "unit": "µM"}, {"measurement": "IC50", "setting": "Sialidase-3", "value": "> 1000", "unit": "µM"}]}
{"smiles": "O=C(O)C1=C[C@H](O)[C@@H](NC(=O)C(F)(F)F)[C@H]([C@H](O)[C@H](O)CO)O1", "values": [{"measurement": "IC50", "setting": "[1]", "value": 2.45, "unit": "µM"}, {"measurement": "IC50", "setting": "Sialidase-3", "value": 3.9, "unit": "µM"}]}
{"smiles": "CC(=O)N[C@@H]1C=C[C@@](OC(C)C)(C(=O)O)O[C@H]1[C@H](O)[C@H](O)CO", "values": [{"measurement": "IC50", "setting": "[1]", "value": 148, "unit": "µM"}, {"measurement": "IC50", "setting": "Sialidase-3", "value": "> 1000", "unit": "µM"}]}
{"smiles": "CC(=O)N[C@@H]1C=C[C@](OC(C)C)(C(=O)O)O[C@H]1[C@H](O)[C@H](O)CO", "values": [{"measurement": "IC50", "setting": "[1]", "value": 511, "unit": "µM"}, {"measurement": "IC50", "setting": "Sialidase-3", "value": "> 1000", "unit": "µM"}]}
{"smiles": "CCS[C@]1(C(=O)O)C=C[C@@H](NC(C)=O)[C@H]([C@H](O)[C@H](O)CO)O1", "values": [{"measurement": "IC50", "setting": "[1]", "value": 100, "unit": "µM"}, {"measurement": "IC50", "setting": "Sialidase-3", "value": "> 1000", "unit": "µM"}]}
{"smiles": "[N-]=[N+]=N[C@H]1C=C(C(=O)O)O[C@@H]([C@H](O)[C@H](O)CO)[C@@H]1NC(=O)C(F)(F)C(F)(F)C(F)(F)F", "values": [{"measurement": "IC50", "setting": "[1]", "value": 0.213, "unit": "µM"}]}
{"smiles": "CCS[C@@]1(C(=O)O)C=C[C@@H](NC(C)=O)[C@H]([C@H](O)[C@H](O)CO)O1", "values": [{"measurement": "IC50", "setting": "[1]", "value": 248, "unit": "µM"}, {"measurement": "IC50", "setting": "Sialidase-3", "value": "> 1000", "unit": "µM"}]}
{"smiles": "CCCO[C@@]1(C(=O)O)C=C[C@@H](NC(C)=O)[C@H]([C@H](O)[C@H](O)CO)O1", "values": [{"measurement": "IC50", "setting": "[1]", "value": 512, "unit": "µM"}, {"measurement": "IC50", "setting": "Sialidase-3", "value": "> 1000", "unit": "µM"}]}
{"smiles": "CCCCO[C@@]1(C(=O)O)C=C[C@@H](NC(C)=O)[C@H]([C@H](O)[C@H](O)CO)O1", "values": [{"measurement": "IC50", "setting": "[1]", "value": 485, "unit": "µM"}, {"measurement": "IC50", "setting": "Sialidase-3", "value": "> 1000", "unit": "µM"}]}
{"smiles": "CCO[C@@]1(C(=O)O)C=C[C@@H](NC(C)=O)[C@H]([C@H](O)[C@H](O)CO)O1", "values": [{"measurement": "IC50", "setting": "[1]", "value": 384, "unit": "µM"}, {"measurement": "IC50", "setting": "Sialidase-3", "value": "> 1000", "unit": "µM"}]}
{"smiles": "CO[C@@]1(C(=O)O)C=C[C@@H](NC(C)=O)[C@H]([C@H](O)[C@H](O)CO)O1", "values": [{"measurement": "IC50", "setting": "[1]", "value": "> 1000", "unit": "µM"}, {"measurement": "IC50", "setting": "Sialidase-3", "value": "> 1000", "unit": "µM"}]}
{"smiles": "CC(=O)N[C@H]1[C@H]([C@H](O)[C@H](O)CO)OC(C(=O)O)=C[C@@H]1O", "note": "[NEU5AC2EN]", "values": [{"measurement": "IC50", "setting": "[1]", "value": 13, "unit": "µM"}, {"measurement": "IC50", "setting": "Sialidase-3", "value": 2.4, "unit": "µM"}]}
